Test results reported in patent publication US9963474B2, “Mitochondria-targeted dicarbonyl sequestering compounds” (MEDICAL RESEARCH COUNCIL, priority 2013, dated 2018).

Key:
BAECs [1] = test: Quantification of MQE and QE in cells by LC-MS/MS; assay type: cell-based, bovine; conditions: 2 μM MitoG; for amounts of MQE and QE detected after exogenous methylglyoxal or glyoxal: 10 mM AG or 2 μM FCCP
Description: (A) and (B) BAECs were incubated with 2 μM MitoG for 1 h and sometimes supplemented with 10 mM AG or 2 μM FCCP. Methylglyoxal (A) or glyoxal (B) were then added, and after a further 3 h incubation the levels of MQE and QE in the cell layers were determined by LC-MS/MS relative to deuterated ISs. (C, D) BAECs were incubated in media containing low (5 mM) or high (30 mM) D-glucose with 2 μM MitoG for the times indicated. Levels of MQE (C) and QE (D) in the cell layers were determined by LC-MS/MS relative to deuterated ISs. Results are means±S.E. of four independent experiments. (E) BAECs were incubated for 4 h in the presence of 2 μM MitoG in media containing either 5 mM D-glucose (low), 30 mM D-glucose (high), 5 mM D-glucose/25 mM L-glucose (L-glucose), or 30 mM D-glucose/10 mM aminoguanidinium. Levels of MQE in the cell layers were determined by LC-MS/MS relative to deuterated ISs. (F) BAECs were incubated in media containing high (30 mM) D-glucose with 2 μM MitoG for 4 h with the indicated concentrations of the glyoxalase I inhibitor bromobenzyl glutathione cyclopentyl diester. Levels of MQE and QE in the cell layers were then determined by LC-MS/MS relative to deuterated ISs. Results are means±S.E. of three determinations. Results are means±S.E. of three (A, B) or four (C-E) independent experiments. *, P<0.05 or **, P<0.01, relative to untreated (A, B) or indicated (C-E) controls; ##, P<0.01 relative to cells treated with 250 μM 1,2-dicarbonyl.
For LC-MS/MS analysis of MitoG reaction products cells were incubated in T25 flasks (Nunc) with 2 μM MitoG at 37° C. Cell monolayers were washed (1 ml PBS), scraped into 1.5 ml PBS and pelleted by centrifugation (16,000 g for 2 min). The pellet was re-suspended in 250 μl 100% acetonitrile/0.1% spiked with deuterated internal standards (ISs) ([…] each of d15-MQE and d15-QE), vortexed and centrifuged (2×16,000 g for 15 min). Samples were dried under vacuum (Savant SpeedVac), re-suspended in 100 μl 20% acetonitrile/0.1% formic acid, vortexed, centrifuged (16,000 g for 10 min), transferred to silanised autosampler vials [Chromacol #1.5HRRV(S)], flushed and sealed under argon and then stored at −80° C. until LC-MS/MS analysis. Where specified, cells were subjected to acute glycaemia treatment and were incubated either in low glucose (5 mM D-glucose), high glucose (30 mM D-glucose), or in osmotic control medium (5 mM D-glucose+25 mM L-glucose) for 4 h.
LC-MS/MS analyses were carried out using a triple quadrupole mass spectrometer (Waters Xevo TQ-S) with an I-class Aquity LC system (Waters) attached. Samples were kept at 4° C. prior to injection by the autosampler of 10 μl into a 15 μl flow-through needle and RP-HPLC at 30° C. using a Luna 5 Phenyl-Hexyl column (1×50 mm, 5 μm; Phenomenex) with a Phenyl-Hexyl guard column (2×4 mm; Phenomenex). Buffers used were MS buffer A [0.1% (v/v) formic acid in water] and MS buffer B [95% acetonitrile/0.1% formic acid (both v/v)]. A gradient was run at […] as follows: 0-2 min—5% B; 2-3 min—5-25% B; 3-5 min—25-75% B; 5-7 min—75-100% B; 7-10 min—100% B; 10-12 min—100-5% B; 12-20 min—5% B. Eluant was diverted to waste from the mass spectrometer at 0-5 min and 16-20 min acquisition time using an in-line divert valve. […] Transitions used for quantification were as follows: MQE, 506>262; d15-MQE, 521>277; QE, 492>262 and d15-QE, 507>277. […]

[2] = test system: RLM respiring on glutamate/malate; test: Protection against dicarbonyl-induced respiratory depression in isolated RLM; set-up: species or system rat; conditions: 37° C.; for protection against methylglyoxal-induced respiratory depression: 0.5 mM methylglyoxal; for protection against glyoxal-induced respiratory depression: 5 mM glyoxal
Description: (§1) Isolated RLM respiring on glutamate/malate were incubated with MitoG, methoxyphenylenediamine (MP) or butylTPP for 2 min, followed by 0.5 mM methylglyoxal or 5 mM glyoxal for 5 min. ADP was then added and the rate of oxygen consumption monitored at 37° C. (see FIGS. 12A & 12B). C2C12 cells were pre-treated with MitoG, methoxyphenylenediamine (MP) or butylTPP for 1 h before exposure to 1 mM methylglyoxal or 5 mM glyoxal (see FIGS. 12C & 12D). Following an overnight incubation, cell survival was determined using the MTS assay. Similar experiments were conducted in BAECs pre-treated with MitoG, MP or butylTPP. For all experiments, concentrations of methylglyoxal and glyoxal used were chosen based on results from studies conducted prior to the protection assays. In these prior studies, RLM or cells were exposed to a range of dicarbonyl concentrations, and the phosphorylating rates of respiration or cell survival were evaluated. The results of these earlier experiments are shown in insets, and dicarbonyl concentrations that had caused significant respiratory depression or cell death were chosen for use in the protection assays. Data for all groups were normalized against untreated controls. For RLM, the rate of respiration by untreated controls was taken to be 100%; for cells, cell survival of untreated controls was taken to be 100%. Results are expressed as mean±S.E. of three independent experiments. MitoG was protective against methylglyoxal-induced respiratory depression and both methylglyoxal- and glyoxal-induced cell death in C2C12 cells and BAECs. […] In FIG. 12 the symbols *, ** respectively indicate that P<0.05 or P<0.01 relative to dicarbonyl-only groups; and the symbols +, ++ respectively indicate that P<0.05 or P<0.01 relative to untreated controls.

BAECs [3] = test: Protection against dicarbonyl-induced cell death, BAECs, MTS assay; assay type: cell-based, bovine; conditions: pre-treated 1 h, overnight
Description: as §1

C2C12 cells = test: Protection against dicarbonyl-induced cell death, C2C12, MTS assay; assay type: cell-based, mouse; conditions: pre-treated 1 h, overnight; for protection against methylglyoxal-induced cell death: C2C12, 1 mM methylglyoxal; for protection against glyoxal-induced cell death: C2C12, 5 mM glyoxal
Description: as §1

[4] = test system: C57Bl6/J mice with STZ-induced Type I diabetes; test: STZ-induced Type I diabetes mouse model, diabetic complications in the heart; assay type: in vivo
Description: To determine the effects of MitoG-amide on diabetic complications in the heart a well-established mouse model of type I diabetes was used, based on destruction of the beta-cells in the pancreas by administration of the beta-cell toxin streptozotocin (STZ; obtainable from Selleck Chemicals, Munich, Germany). Mice that were 6-7 week old C57Bl6/J mice (>20 g) were administered STZ (50 mg/kg by intraperitoneal injection) on 5 consecutive days. The death of the beta-cells and the induction of the high blood glucose associated with Type I diabetes was confirmed by weekly blood glucose tests on mice tail vein blood sample. A blood glucose level >17 mmol/l was considered diabetic. For experiments, mice were divided into three groups: (a) control; (b) STZ-induced Type I diabetes; and (c) STZ-induced Type I diabetic animals treated with MitoG-amide (10 mg/kg body weight once per day via gavage). This was repeated for 12 weeks (FIG. 13). At the end of the protocol, mice underwent cardiac magnetic resonance imaging (MRI) measurement (FIG. 14) followed by left ventricular catheter-based Pressure/Volume (P/V) measurement (FIG. 15). The MRI and P/V loop measurements were performed on the same day and the MRI volume measures were used as correction for the P/V loop.
For the cardiac magnetic resonance imaging (MRI) measurement a standard cardiac MRI protocol with a 4.7T Bruker BioSpec system was performed 24 h after surgery. Anaesthesia was induced with 3% and maintained with 1.25% isoflurane in oxygen. Temperature was monitored with a rectal probe and maintained constant via a heated water blanket, respiration was monitored using a pillow connected to a piezoelectric transducer. Electrocardiogram (ECG) signals were monitored with neonatal graphite (3M) electrodes, placed over the front left and rear right paws.
A 12 cm diameter birdcage was used to transmit the signal and a 4 channel cardiac array coil was used for signal reception. The imaging protocol consisted of scout scans followed by ECG-gated fast imaging with steady state […] (FISP) slices (repetition time/echo time TR/TE 6/2.4 ms 13-20 frames, 3.5 cm field of view (FOV), 256 matrix, 1 mm slice thickness, bandwidth 64.1 kHz, flip angle (FA) 20°, 2 sampling average [number of excitations, NEX]), in the long-axis and in the short-axis to cover the whole heart. In post processing, volumes during different phases of the ECG were delineated and integrated over whole heart using Simpson's rule. Global functional parameters were obtained including ejection fraction, the fraction of blood ejected into the circulation during one heartbeat.
For the Pressure/Volume (P/V) measurement, left ventricular catheterization via the right carotid artery was carried out using a 1.2 F pressure-catheter (Scisense Inc., London, Canada).
The results of the long-term treatment of the STZ-induced Type I diabetes administered with MitoGamide on body weight, blood glucose and heart rate were compared with placebo-treated STZ mice and controls (FIG. 16). The blood glucose was measured on whole blood using Johnson and Johnson's OneTouch® Ultra Blood Glucose Monitoring System. The heart rate was measured during use of the P/V loop catheter and recorded.
To assess the effect of MitoGamide on the well-known detrimental effects of long-term hyperglycaemia in Type I diabetes heart function was measured by MRI and by P/V loop measurement (FIG. 17). Mice that were 6-7 week old C57Bl6/J mice (>20 g) were administered STZ (50 mg/kg by intraperitoneal injection) on 5 consecutive days. The death of the beta-cells and the induction of the high blood glucose associated with Type I diabetes was confirmed by weekly blood glucose tests on mice tail vein blood sample. A blood glucose level >17 mmol/l was considered diabetic. […]

[5] = 10 mg/kg once per day via gavage, 12 weeks
[6] = MRI, 10 mg/kg once per day via gavage
[7] = P/V loop, 10 mg/kg once per day via gavage

Compound	amounts of MQE and QE detected after exogenous methylglyoxal or glyoxal (BAECs [1])	protection against methylglyoxal-induced respiratory depression [2]	protection against glyoxal-induced respiratory depression [2]	protection against glyoxal-induced cell death (BAECs [3])	protection against methylglyoxal-induced cell death (BAECs [3])	protection against methylglyoxal-induced cell death (C2C12 cells)	protection against glyoxal-induced cell death (C2C12 cells)	further results
N=C(N)NN [AG, aminoguanidine]	reduced	–	–	–	–	–	–	formation of MQE under high glucose (BAECs [1]; 30 mM D-glucose/10 mM aminoguanidinium, 4 h): decreased
CCCC[P+](c1ccccc1)(c1ccccc1)c1ccccc1 [ButylTPP]	–	not significantly protective	not significantly protective	not significantly protective	not significantly protective	not significantly protective	not significantly protective	–
N#CC(C#N)=NNc1ccc(OC(F)(F)F)cc1 [FCCP, carbonylcyanide p-trifluoromethoxyphenylhydrazone]	reduced	–	–	–	–	–	–	formation of MQE/QE under high glucose (BAECs [1]; high glucose, with uncoupler): blocked
CCCCCCOc1ccc(N)c(N)c1 [HP, 4-Hexyloxybenzene-1,2-diamine]	–	not significantly protective	not significantly protective	not significantly protective	not significantly protective	not significantly protective	not significantly protective	–
Nc1ccc(C(=O)NCCC[P+](c2ccccc2)(c2ccccc2)c2ccccc2)cc1N [MitoGamide, [3-(3,4′-Diaminobenzoylamino)-prop-1-yl]triphenylphosphonium m esylate]	–	–	–	–	–	–	–	effect on STZ-induced decrease in body weight [4, 5]: neither of which were affected; effect on STZ-induced increase in blood glucose [4, 5]: neither of which were affected; heart rate [4, 5]: neither STZ- or MitoGamide-treatment affected heart rate; increase in diastolic stiffness in diabetic mice ([4]; MRI-corrected P/V loops, 10 mg/kg once per day via gavage): prevented; end diastolic volume impaired by STZ [4, 6]: not ameliorated; systolic ejection fraction [4, 6]: neither STZ nor MitoGamide had any effect; increase in end diastolic pressure in diabetic mice [4, 7]: prevented; left ventricular diastolic time constant (Tau Weiss) impaired by STZ [4, 7]: not ameliorated; oxidative damage in the heart (4-hydroxynonenal staining) ([4]; heart histology, antibody against 4HNE): decreased oxidative damage
NC(CCC(=O)NC(CSCc1ccc(Br)cc1)C(=O)NCC(=O)OC1CCCC1)C(=O)OC1CCCC1 (centres unmarked) [bromobenzyl glutathione cyclopentyl diester]	–	–	–	–	–	–	–	amount of MQE and QE under high glucose (BAECs [1]; high glucose, 4 h, glyoxalase I inhibitor): increased
